The values that follow come from PMC11858854, “In Vitro and In Vivo Assessment of Pharmacokinetic Profile of Peramivir in the Context of Inhalation Therapy” (Pharmaceuticals, 2025).

For one series, the target named is T1, human OCTN2 (Homo sapiens, UniProt O76082).
T1 construct: Huidi Jiang, Zhejiang University; host or cells: MDCK (MDCK-OCTN2); control MDCK-MOCK
T1 sequence (O76082 1-557): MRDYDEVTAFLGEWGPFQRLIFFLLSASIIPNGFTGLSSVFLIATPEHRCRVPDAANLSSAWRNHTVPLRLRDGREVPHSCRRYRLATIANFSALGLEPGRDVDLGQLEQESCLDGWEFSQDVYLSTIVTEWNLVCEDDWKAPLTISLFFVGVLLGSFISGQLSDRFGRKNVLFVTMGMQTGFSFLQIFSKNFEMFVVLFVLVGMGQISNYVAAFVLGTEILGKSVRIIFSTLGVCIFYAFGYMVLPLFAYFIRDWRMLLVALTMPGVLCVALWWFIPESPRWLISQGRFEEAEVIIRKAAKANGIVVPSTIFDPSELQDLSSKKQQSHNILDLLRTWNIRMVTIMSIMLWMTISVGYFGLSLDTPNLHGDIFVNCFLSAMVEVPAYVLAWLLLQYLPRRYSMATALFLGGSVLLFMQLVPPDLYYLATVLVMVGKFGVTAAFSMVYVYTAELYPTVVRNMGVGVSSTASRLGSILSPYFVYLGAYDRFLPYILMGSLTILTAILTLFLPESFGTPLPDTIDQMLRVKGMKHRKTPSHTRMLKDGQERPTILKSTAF
The experiment in a line: Uptake study, MDCK cells overexpressing OCTN2. In kind it is in vitro ADME. The procedure:
All cells (HEK293-MOCK, HEK293-OCT1, HEK293-OCT2, MDCK-MOCK, MDCK-OCTN1, and MDCK-OCTN2) were cultured in DMEM medium supplemented with 10% FBS and PS (100 U/mL), at 37 °C in a humidified 5% CO2 incubator. Cells were seeded on 24-well plates at a density of 1 × 10^4 cells/well. For the uptake assay, the DMEM media were removed, and the cells were washed with pre-warmed Hank’s buffer three times (1 mL/well). Subsequent addition of inhibitor-free/inhibitor-containing buffer was pre-incubated for 30 min at 37 °C prior to the initiation of the uptake experiment. After the pre-incubating buffer was removed, 200 μL of pre-warmed test drugs solution (Hank’s buffer containing 10 µM and 50 µM peramivir) or a mixture of test drugs and inhibitor was added into each well, and the plates were incubated at 37 °C for 5 min. At the end of incubation, cells were washed and lysed as described above. The cell lysate was collected and stored at −40 °C for LC-MS/MS analysis and protein measurement. The negative control (MOCK cells) and positive control were included simultaneously.

For the next series, the system named is Caco-2 cell model. Set-up: method as in PMID 28000173. The conditions noted are these: Caco-2, 10 μM; cited from earlier work.
For the next series, the system named is A549 cells. The experiment in a line: Uptake study by A549 cells. In kind it is in vitro ADME, human. The conditions noted are these: 10 µM, 37 °C or 4 °C. As to the method:
A549 cells were cultured in DMEM medium supplemented with 10% FBS and PS (100 U/mL) at 37 °C in a humidified 5% CO2 incubator. Cells were seeded on 24-well plates at a density of 3 × 10^4 cells/well. For the uptake assay, the DMEM media were removed, and the cells were washed with pre-warmed Hank’s buffer three times (1 mL/well). The third washing buffer was retained in the wells, and the plate was placed in an incubator at 37 °C or 4 °C for 30 min prior to the initiation of the uptake experiment. Following the removal of the washing buffer, 200 μL of pre-warmed test drug solution (Hank’s buffer containing the 10 µM peramivir) was added into each well, and the plates were incubated at 37 °C or 4 °C for 2, 5, and 15 min. Then the incubation solution was removed, and the cells were washed with ice-cold transportation buffer three times (1 mL/well). A total of 0.2 mL pure water was added to each well to lyse the cells by repeated freezing and thawing (−196 °C~37 °C, three times). The cell lysate was collected and stored at −40 °C for LC-MS/MS analysis and protein measurement.

A further series concerns LLC-PK1 cells. The experiment in a line: Permeability assay, LLC-PK1-MOCK cells. It counts as in vitro ADME. Particulars: LLC-PK1, 2 μM, Mean ± SD, n = 3.

Method for LLC-PK1 cells: When the cell transport system was mature in culture, experiments were performed. […] When assessing permeability in basolateral to apical (B-A) direction, 100 μL of pre-warmed Buffer B and 600 μL of pre-warmed test solutions were added to the apical and basolateral compartments, respectively. The Transwells® were placed in an incubator at 37 °C and 5% CO2 for a duration of 2 h. At the end of the incubation period, the samples in the apical and basolateral sides were collected separately and were briefly kept at a temperature of −40 °C for LC-MS/MS analysis. […] The cells were transferred to Transwell® plates (Corning, NY, USA) at a density of 2 × 10^4 cells/well with 200 μL of cell suspension per well, while 850 μL of complete medium was added to the basolateral chamber. […] The samples were collected separately and were briefly kept at a temperature of −40 °C for LC-MS/MS analysis.

As to `CCC(CC)[C@H](NC(C)=O)[C@@H]1[C@H](O)[C@@H](C(=O)O)C[C@H]1N=C(N)N` [Peramivir], the OCTN2 substrate status result on human OCTN2 (MDCK-OCTN2) was “confirming peramivir as a substrate for the OCTN2 transporter”. Moreover, on human OCTN2 (MDCK-OCTN2, 50 μM), the “transporter-mediated uptake ratio (UR value)” value worked out at 41.62. Besides, the “inhibition ratio (IR value)” value on human OCTN2 (MDCK-OCTN2, 50 μM, inhibitor L-carnitine (200 μM)) is reported as 65.69%. Also, in the series on Caco-2 cell model, the Papp is 3.29 ± 0.739 × 10^−7 cm·s^−1. Further, the “uptake rate in A549 cell model” value with A549 cells is “low”. For the same molecule, in the series with LLC-PK1 cells, the “Papp A-B” value is reported as “BLQ” and the “Papp B-A” value is given as 0.21 ± 0.04 ×10−6 cm/s.
